Measurements published in paper PMC10094510, “Novel Cannabinoid Receptor 2 (CB2) Low Lipophilicity Agonists Produce Distinct cAMP and Arrestin Signalling Kinetics without Bias” (International Journal of Molecular Sciences, 2023).
Read-outs that look alike come from different tables or passages of the source.

How the values were obtained:
human CB2 [1] = target: T1, human CB2 (Homo sapiens, UniProt P34972, Q63R); test: Real-time BRET CAMYEL cAMP biosensor, forskolin-stimulated HEK-293S cells transfected with human CB2; type: cell-based; conditions: for 2.5 min EC75 concentration (log[compound] M): cAMP assay, calculated from mean EC50 at 2.5 min, Figure S1; for time of peak cAMP response (maximal efficacy): during 20 min stimulation; for cAMP ΔEmax (absolute magnitude percentage decrease from 100%): normalised to V 0% and F 100%
T1 construct: HA (N); 3TCS (N); expressed in transfected cells; host or cells: HEK-293S cells, transient transfection (PEI max)
Experimental: (§1) HEK-293S cells (HEK-S; generously provided by Professor David Poyner, Aston Research Centre, RRID:CVCL_A784 [48]) were maintained in T75 flasks (Corning-Costar) with Dulbecco’s Modified Eagle’s Medium high glucose with phenol red, L-glutamine and sodium pyruvate (DMEM; Cytiva SH30243), and 8% foetal bovine serum (FBS; NZ-origin, Moregate Biotech) at 37 °C in a humidified atmosphere containing 5% CO2.
(§2) Poly-D-Lysine (PDL) (Sigma-Aldrich) at 0.05 mg/mL in PBS was incubated in wells of 96-well Solid White Flat Bottom Polystyrene TC-treated Microplate (Corning-Costar) at 37 °C for 1 h, then washed with PBS prior to seeding and transfection. Cells were seeded at 45,000 cells/well in DMEM supplemented with 12% FBS.
(§3) Plasmids encoding human CB2 (HA-3TCS-hCB2 63R pcDNA5/FRT; 28.5 ng per well) or no receptor (pcDNA5/FRT/CAT; 23.5 ng per well; Thermo Fisher Scientific, Waltham, MA, USA), and either His-CAMYEL (in pcDNA3L; 24 ng per well; ATCC MBA-277; previously described in [49]), or a mix of Rluc8-hβ-arrestin2-Sp1 (in pcDNA3; 0.5 ng per well; previously described in [19]) and Mem-linker-Citrine-SH3 (in pcDNA3; 20 ng per well; previously described in [19, 50]) were diluted in DMEM. Diluted DNA was then co-incubated with polyethyleneimine max (PEI max; Polysciences, Warrington, PA, USA) (Total DNA:PEI ratio of 1:7.5 or 1:6.7 for cAMP or β-arrestin-2 experiments, respectively) in DMEM for 1 h at room temperature (~19–21 °C). These transfection mixes were then added to plated cells, resulting in a final concentration of 8% FBS. Plates were incubated for ~48 h before assaying.
(§4) The protocol for measuring levels of cellular cAMP via real-time BRET biosensor (CAMYEL) is adapted from previous publications. In all cAMP experiments, forskolin (Tocris Bioscience, Bristol, UK) was used to stimulate the activation of adenylyl cyclase to raise intracellular cAMP levels. Vehicle (DMSO) was maintained at an equivalent concentration across all conditions. Assays were carried out in technical duplicate. Then, ~48 h post-transfection, plating media was aspirated, and wells were washed with H+B, consisting of HBSS (Life Technologies) and 1 mg/mL BSA (ICPbio). H+B was then added to the wells to initiate a 30 min serum starve at 37 °C. Post-serum starve, coelenterazine h (final concentration 5 μM, NanoLight Technologies, Norman, OK, USA, #301) was added to the wells, and a 5 min pre-reading was conducted using the LUMIstar® Omega luminometer (Rluc and YFP emissions detected at 460 nm and 535 nm, respectively; BMG Labtech, Ortenberg, Germany). Next, forskolin (final concentration 5 μM) was added to all wells (except vehicle-only wells which received DMSO), and plate reading resumed for 5 min. Lastly, CB2 compounds of interest with forskolin, vehicle with forskolin, or vehicle without forskolin, were added to their respective wells, and a final 20 min read was conducted. All compounds and reagents were diluted in H+B prior to addition to the plate. For β-arrestin-2 recruitment assays, an equivalent procedure was followed except no forskolin was included in the assay stimulations.
(§5) BRET ratios were calculated by dividing YFP emissions by Rluc emissions, then for the cAMP assay, normalised to the mean of baseline ratio reads (where only coelenterazine h was present) to eliminate any variability present prior to drug addiction. An increase in BRET ratio indicated a decrease in cAMP levels or increase in β-arrestin-2 recruitment. Lowess smoothing (GraphPad Prism) was applied to individual technical replicates within an assay. Concentration response curves for the mean of technical replicates (CRC; “log(agonist) vs. response (three parameters)” nonlinear regression curve model, Hill slope constrained to 1) were drawn for the mean ratios over 20 min stimulation or individual time-points.

human CB2 [2] = target: T1, human CB2; test: Real-time BRET β-arrestin-2 plasma membrane translocation, HEK-293S cells transfected with human CB2; type: cell-based; conditions: for β-arrestin-2 translocation ΔEmax (% increase above V): normalised to vehicle 100%
Experimental: as §1, §2, §3, §4, §5

human CB1 = target: T2, human CB1 (Homo sapiens, UniProt P21554); test: Competition radioligand binding assay ([3H]-CP55,940), hCB1 membranes
T2 construct: pplss (N); 3HA (N); expressed in transfected cells
Experimental: Preparation of hCB1- and hCB2-membranes from a HEK pplss-3HA-hCB1 cell line and HEK Flp-in HA-3TCS-hCB2 63R cell line, respectively, followed the protocol described previously. […] The concentration of DMSO was kept equivalent across all test conditions. All dilutions were dispensed into a 96-well, polypropylene V-bottom plate (Gene Era Biotech, Hangzhou, China). […] All conditions were carried out in technical duplicate. The plate was then sealed, tap-mixed, then incubated at 30 °C for 1 h. A total of 50 µL of 0.1% PEI (Sigma-Aldrich, St. Louis, MI, USA) in MQ water was added to each well of a 96-well GF/C harvest plate (Perkin Elmer) 1 h prior to the harvest. When the incubation finished, vacuum (~5 mmHg) was applied to the harvest plate and wells were washed (50 mM HEPES pH 7.4, 500 mM NaCl, 1 mg/mL BSA, MQ water, ice cold). Subsequently, the contents of the V-bottom plate were transferred to corresponding wells in the harvest plate, wash buffer was used to wash the remaining contents of the V-bottom wells before transferring this to the harvest plate, then the harvest plate was washed an additional three times. The plate was dried for ~24 h at 24 °C. To prepare for reading, the bottom of the plate was sealed, each well received 50 µL of Irgasafe Plus scintillation fluid (Perkin Elmer), followed by sealing the top of the plate. Plates were read in a Wallac MicroBeta® TriLux Liquid Scintillation Counter (Perkin Elmer) with a read time of 2 min/well.
(§6) GraphPad Prism (v8.0.2; GraphPad Software, San Diego, CA, USA) was used to fit nonlinear regression curves (One site—Fit Ki) to the corrected counts per minutes (CCPM) of each displacer to determine their pKi (negative log Ki). […] Mean and SEM of pKi values were calculated from independent experiments. […] CB2 selectivity was calculated as […].

human CB2 [3] = target: T1, human CB2; test: Competition radioligand binding assay ([3H]-CP55,940), hCB2 membranes; conditions: for CB2/CB1 Selectivity: CB2 selectivity relative to CB1, from Ki (or Kd); for displacement of [3H]-CP55,940 from CB2: full displacement = ≥ 75% relative to 1 µM CP55,940
Experimental: The concentration of DMSO was kept equivalent across all test conditions. All dilutions were dispensed into a 96-well, polypropylene V-bottom plate (Gene Era Biotech, Hangzhou, China). […] All conditions were carried out in technical duplicate. The plate was then sealed, tap-mixed, then incubated at 30 °C for 1 h. A total of 50 µL of 0.1% PEI (Sigma-Aldrich, St. Louis, MI, USA) in MQ water was added to each well of a 96-well GF/C harvest plate (Perkin Elmer) 1 h prior to the harvest. When the incubation finished, vacuum (~5 mmHg) was applied to the harvest plate and wells were washed (50 mM HEPES pH 7.4, 500 mM NaCl, 1 mg/mL BSA, MQ water, ice cold). Subsequently, the contents of the V-bottom plate were transferred to corresponding wells in the harvest plate, wash buffer was used to wash the remaining contents of the V-bottom wells before transferring this to the harvest plate, then the harvest plate was washed an additional three times. The plate was dried for ~24 h at 24 °C. To prepare for reading, the bottom of the plate was sealed, each well received 50 µL of Irgasafe Plus scintillation fluid (Perkin Elmer), followed by sealing the top of the plate. Plates were read in a Wallac MicroBeta® TriLux Liquid Scintillation Counter (Perkin Elmer) with a read time of 2 min/well.
as §6

CB2 [4] = test system: CB2; set-up: method as in PMID 22444677; conditions: error not shown; cited from earlier work
rodents = test system: rodents; set-up: method as in PMID 22444677, PMID 25721168; conditions: cited from earlier work
CB2 [5] = target: CB2; set-up: method as in PMID 22444677; conditions: error not shown; cited from earlier work; remark: listed apart in the source
atopic dermatitis = test system: atopic dermatitis; set-up: method as in PMID 22444677, PMID 25721168; conditions: informally reported; cited from earlier work
[6] = set-up: method as in PMID 22444677, PMID 25721168; conditions: cited from earlier work
CB2 [7] = test system: CB2; set-up: method as in PMID 31024316; conditions: cited from earlier work
[8] = mean over 20 min stimulation, 5 μM forskolin

T1 sequence (P34972 whole entry Q63R): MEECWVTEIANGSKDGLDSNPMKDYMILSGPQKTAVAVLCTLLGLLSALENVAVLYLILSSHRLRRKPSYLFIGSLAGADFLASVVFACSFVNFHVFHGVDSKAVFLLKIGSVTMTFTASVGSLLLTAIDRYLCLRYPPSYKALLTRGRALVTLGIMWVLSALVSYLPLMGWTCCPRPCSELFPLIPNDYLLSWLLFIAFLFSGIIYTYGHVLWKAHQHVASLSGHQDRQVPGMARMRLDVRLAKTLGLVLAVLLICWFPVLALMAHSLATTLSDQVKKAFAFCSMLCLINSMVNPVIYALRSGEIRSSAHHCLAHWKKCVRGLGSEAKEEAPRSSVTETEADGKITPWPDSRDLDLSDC
T2 sequence (P21554 whole entry): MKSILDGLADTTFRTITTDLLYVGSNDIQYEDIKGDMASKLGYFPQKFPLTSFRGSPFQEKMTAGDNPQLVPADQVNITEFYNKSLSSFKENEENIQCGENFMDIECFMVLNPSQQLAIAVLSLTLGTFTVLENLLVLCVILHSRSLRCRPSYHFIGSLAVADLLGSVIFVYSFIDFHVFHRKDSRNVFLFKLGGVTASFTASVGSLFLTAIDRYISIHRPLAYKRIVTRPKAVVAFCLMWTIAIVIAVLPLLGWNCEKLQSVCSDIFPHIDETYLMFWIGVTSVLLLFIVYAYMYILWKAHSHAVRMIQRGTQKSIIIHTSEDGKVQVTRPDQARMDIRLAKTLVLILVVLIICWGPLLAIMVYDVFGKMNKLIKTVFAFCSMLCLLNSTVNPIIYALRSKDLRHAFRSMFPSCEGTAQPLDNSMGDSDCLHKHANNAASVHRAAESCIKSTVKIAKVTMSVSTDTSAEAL

Row | SMILES | 2.5 min EC75 concentration (log[compound] M) (human CB2 [1]) [log M] | time of peak cAMP response (maximal efficacy) (human CB2 [1]; 5 μM forskolin) | cAMP ΔEmax (absolute magnitude percentage decrease from 100%) (human CB2 [1]; [8]) | β-arrestin-2 translocation ΔEmax (% increase above V) (human CB2 [2]; mean over 20 min stimulation) | EC50 (human CB2 [1]) [nM] | decrease in cAMP pEC50 in comparison with CP55,940 (human CB2 [1]; mean over 20 min stimulation) | Ki (human CB1) [nM] | Ki (human CB2 [3]) [nM] | CB2/CB1 Selectivity (human CB2 [3]) | EC50 (human CB2 [2]) [nM] | displacement of [3H]-CP55,940 from CB2 (human CB2 [3]) | other results
1 | CCCCCCC(C)(C)c1ccc([C@@H]2C[C@H](O)CC[C@H]2CCCO)c(O)c1 [CP55,940, reference compound] | -7.3 | ≤ 2.5 min | 35.1% ± 3.5% | 17.6% ± 0.8% |  |  |  |  |  |  |  | increase of cAMP response potency during the acute 5 min period (human CB2 [1]; not significant vs 2.5 min): ~ 0.5 log units; time to plateau of β-arrestin-2 efficacy (human CB2 [2]; 20 min stimulation): approximately 5 min; overall increase of β-arrestin-2 response potency during the stimulation (human CB2 [2]; 20 min stimulation, vs 1.5 min): ~ 0.7 log units
2 | O=C(N[C@H]1CC[C@@H](O)CC1)c1cc2cccnc2n(CCN2CCOCC2)c1=O [UOMM18] | -7.1 | 2.5 min | 28.0 ± 2.4% | 7.3 ± 0.6% | 63.1 | ~ 0.8 log units | > 100000 | 724 | >126 | 126 |  | displacement of [3H]-CP55,940 at CB1 (human CB1; highest applied concentration 31.6 µM): did not detectably displace; CB2 affinity lower than pKd of CP55,940 (human CB2 [3]; p < 0.0001): ~ 2.5 log units; agonist type for β-arrestin-2 translocation (human CB2 [2]; relative to CP55,940): partial agonist
3 | CCc1c(C)cc(C(=O)NC2(C(=O)NCCOCCOCCO)CCCCC2)c(=O)n1Cc1ccc(F)cc1 [UOSS75] | -7.6 | 2.5 min | 31.4 ± 3.9% | 8.5 ± 0.7% | 10 |  | ~15100 | 148 | ~100 | 100 | fully displaced | 
4 | CCc1c(C)cc(C(=O)NC2(C(=O)NCCOCCOCCOCCO)CCCCC2)c(=O)n1Cc1ccc(F)cc1 [UOSS76] | -6.9 | around 4.5 min | 26.1 ± 3.6% | 7.9 ± 1.2% | 100 | ~ 1.0 log units | ~29500 | 813 | ~40 | 631 | fully displaced | decrease of cAMP response potency during the early phase of stimulation (human CB2 [1]; not significant vs 4.5 min): ~ 0.7 log units; reduction of CB2 pKi vs. UOSS77 (human CB2 [3]; p = 0.015): 0.6 log units; smaller β-arrestin-2 pEC50 than CP55,940 (human CB2 [2]; mean over 20 min stimulation): ~ 1.0 log units; weaker β-arrestin-2 potency than UOSS77 (human CB2 [2]; mean over 20 min stimulation): ~ 0.7 log units
5 | CCc1c(C)cc(C(=O)NC2(C(=O)O)CCCCC2)c(=O)n1Cc1ccc(F)cc1 [UOSS77, reference compound] | -7.6 | 2.5 min | 33.8 ± 5.5% | 11.1 ± 0.7% |  |  |  |  | ~80 |  | fully displaced | EC50 (human CB2 [1]; mean over 20 min stimulation, 5 μM forskolin, mean ± SEM, read-out: cAMP pEC50 (converted)): 12.6 nM; agonism pEC50 (cAMP) (CB2 [4]): 7.6; Ki (human CB1; 0.75 nM [3H]-CP55,940, estimates, incomplete displacement at maximum concentration, read-out: CB1 pKi (±SEM) (converted)): ~15800 nM; anti-pruritic activity in rodents (rodents): shown promise as an anti-pruritic agent; Ki (human CB2 [3]; 0.75 nM [3H]-CP55,940, mean (SEM), read-out: CB2 pKi (±SEM) (converted)): 186 nM; CB2 pKi (CB2 [5]): 7.4; efficacy in Phase 2 clinical trial for atopic dermatitis (atopic dermatitis): ineffective; oral bioavailability [6]: orally bioavailable; EC50 (human CB2 [2]; mean over 20 min stimulation, mean ± SEM, read-out: β-arrestin-2 translocation pEC50 (converted)): 126 nM
6 | Cc1c(C(=O)c2cccc3ccccc23)c2cccc3c2n1[C@H](CN1CCOCC1)CO3 [WIN55,212-2] |  |  |  |  |  |  |  |  |  |  |  | agonist type for β-arrestin-2 recruitment to CB2 in comparison with CP55,940 (CB2 [7]): weak partial agonist
